These results are taken from patent US11725036B2, “Modified lipidated relaxin B chain peptides and their therapeutic use” (Sanofi, priority 2018, dated 2023).

Starred links: 1 amine or outer side, 2 acyl side, 3 side chain; linkers in the order of their positions; H or OH if unused. Non-standard residues stand in square brackets, D forms with d. Residues, ends and D or L forms follow the SMILES beside them. Groups on a side chain read outwards from the residue. *: point of attachment. X12 = CCCCCCCCCCCCCCCCCC(=O)N[C@@H](CCC(=O)N[C@@H](CCC(=O)N[C@@H](CCC(=O)N[C@@H](CCC(=O)NCCCOCCOCCOCCCNC(=O)CCC(=O)NCCCOCCOCCOCCCNC(=O)CCC(=O)NCCCOCCOCCOCCCNC(=O)CCC(=O)NCCCOCCOCCOCCCN*)C(=O)O)C(=O)O)C(=O)O)C(=O)O; X13 = CCCCCCCCCCCCCCCC(=O)N[C@@H](CCC(=O)N[C@@H](CCC(=O)N[C@@H](CCC(=O)N[C@@H](CCC(=O)NCCCOCCOCCOCCCNC(=O)CCC(=O)NCCCOCCOCCOCCCNC(=O)CCC(=O)NCCCOCCOCCOCCCN*)C(=O)O)C(=O)O)C(=O)O)C(=O)O; X3 = CCCCCCCCCCCCCCCCCC(=O)N[C@@H](CCC(=O)N[C@@H](CCC(=O)N[C@@H](CCC(=O)NCCCOCCOCCOCCCNC(=O)CCC(=O)NCCCOCCOCCOCCCNC(=O)CCC(=O)NCCCOCCOCCOCCCN*)C(=O)O)C(=O)O)C(=O)O; X1 = CCCCCCCCCCCCCCCC(=O)N[C@@H](CCC(=O)N[C@@H](CCC(=O)N[C@@H](CCC(=O)NCCCOCCOCCOCCCNC(=O)CCC(=O)NCCCOCCOCCOCCCNC(=O)CCC(=O)NCCCOCCOCCOCCCN*)C(=O)O)C(=O)O)C(=O)O; X4 = CCCCCCCCCCCCCCCCCC(=O)N[C@@H](CCC(=O)N[C@@H](CCC(=O)N[C@@H](CCC(=O)NCCCOCCOCCOCCCNC(=O)CCC(=O)NCCCOCCOCCOCCCN*)C(=O)O)C(=O)O)C(=O)O; Suc = O=C(CCC(=O)[*:2])[*:1]; Aib = CC(C)(N)C(=O)O

For the experiment, the target named is T1, RXFP1 (Homo sapiens, UniProt Q9HBX9).
T1 construct: OVCAR5 cells expressing endogenous RXFP1; endogenous in cells; host or cells: OVCAR5
T1 sequence (Q9HBX9 1-757): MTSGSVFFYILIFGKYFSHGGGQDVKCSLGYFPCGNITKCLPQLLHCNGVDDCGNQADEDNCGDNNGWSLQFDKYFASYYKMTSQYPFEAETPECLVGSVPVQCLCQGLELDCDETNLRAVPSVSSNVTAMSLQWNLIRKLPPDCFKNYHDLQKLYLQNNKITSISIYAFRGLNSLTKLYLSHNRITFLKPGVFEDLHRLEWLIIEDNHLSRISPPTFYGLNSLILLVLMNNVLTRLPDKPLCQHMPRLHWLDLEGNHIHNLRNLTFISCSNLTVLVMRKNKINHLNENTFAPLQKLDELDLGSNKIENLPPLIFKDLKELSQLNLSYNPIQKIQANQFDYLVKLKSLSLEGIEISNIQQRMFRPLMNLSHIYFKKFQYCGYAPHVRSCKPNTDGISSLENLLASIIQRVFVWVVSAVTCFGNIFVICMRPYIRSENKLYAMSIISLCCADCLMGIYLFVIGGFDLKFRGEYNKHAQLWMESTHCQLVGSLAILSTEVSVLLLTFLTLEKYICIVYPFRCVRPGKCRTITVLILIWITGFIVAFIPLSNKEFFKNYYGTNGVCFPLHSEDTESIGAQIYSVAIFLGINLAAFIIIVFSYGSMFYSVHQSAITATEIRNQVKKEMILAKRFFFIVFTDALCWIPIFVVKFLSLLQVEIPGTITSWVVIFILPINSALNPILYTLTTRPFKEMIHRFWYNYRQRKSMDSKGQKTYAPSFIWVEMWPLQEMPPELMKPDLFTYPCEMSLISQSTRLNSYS
Description: OVCAR5 cAMP assay (HTRF). The experiment is classed as cell-based. The settings on record: for Emax: OVCAR 5 cells, maximal cAMP relative to H2-relaxin; for EC50: OVCAR 5 cells expressing endogenous RXFP1, cAMP readout. In short, it runs like this:
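Endogenous RXFP1 in OVCAR5 cells, pretreated 40 min at 37° C with 1 mM IBMX, then exposed to increasing peptide concentrations in serum-free medium for 30 min at 37° C. cAMP read by HTRF; EC50 by variable-slope sigmoidal fit, Emax as % of H2-relaxin maximal cAMP in same run.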

`CCCCCCCCCCCCCCCCCC(=O)N[C@@H](CCC(=O)N[C@@H](CCC(=O)N[C@@H](CCC(=O)N[C@@H](CCC(=O)NCCCOCCOCCOCCCNC(=O)CCC(=O)NCCCOCCOCCOCCCNC(=O)CCC(=O)NCCCOCCOCCOCCCNC(=O)CCC(=O)NCCCOCCOCCOCCCNC(=O)CCC(=O)NCCCC[C@H](NC(=O)CNC(=O)[C@H](CCC(=O)O)NC(=O)C(C)(C)NC(=O)C(C)(C)NC(=O)[C@@H](NC(=O)[C@H](CCCCNC(C)=O)NC(=O)[C@H](C)NC(=O)[C@H](CCCNC(=N)N)NC(=O)[C@@H](NC(=O)[C@H](CCCCN)NC(=O)[C@H](CCC(=O)O)NC(=O)[C@H](CCCNC(=N)N)NC(=O)CNC(=O)[C@H](CCC(=O)O)NC(=O)[C@H](CC(C)C)NC(C)=O)C(C)C)[C@@H](C)CC)C(=O)N[C@@H](CO)C(=O)N[C@H](C(=O)N[C@@H](Cc1c[nH]c2ccccc12)C(=O)N[C@@H](CO)C(=O)NC(C)(C)C(=O)N[C@@H](CCCNC(=N)N)C(=O)N[C@@H](CCCCN)C(=O)N[C@@H](CCCCNC(C)=O)C(N)=O)[C@@H](C)O)C(=O)O)C(=O)O)C(=O)O)C(=O)O` [compound 59] (Ac-LEGREKVRAK(Ac)I[Aib][Aib]EGK([Suc-X12])STWS[Aib]RKK(Ac)-NH2) yielded an Emax of 99%. Take `CCCCCCCCCCCCCCCCCC(=O)N[C@@H](CCC(=O)N[C@@H](CCC(=O)N[C@@H](CCC(=O)NCCCOCCOCCOCCCNC(=O)CCC(=O)NCCCOCCOCCOCCCNC(=O)CCC(=O)NCCCC[C@H](NC(=O)CNC(=O)[C@H](CCC(=O)O)NC(=O)C(C)(C)NC(=O)C(C)(C)NC(=O)[C@@H](NC(=O)[C@H](CCCCNC(C)=O)NC(=O)[C@H](C)NC(=O)[C@H](CCCNC(=N)N)NC(=O)[C@@H](NC(=O)[C@H](CCCCN)NC(=O)[C@H](CCC(=O)O)NC(=O)[C@H](CCCNC(=N)N)NC(=O)CNC(=O)[C@H](CCC(=O)O)NC(=O)[C@H](CC(C)C)NC(C)=O)C(C)C)[C@@H](C)CC)C(=O)N[C@@H](CO)C(=O)N[C@H](C(=O)N[C@@H](Cc1ccccc1)C(=O)N[C@@H](CO)C(=O)NC(C)(C)C(=O)N[C@@H](CCCNC(=N)N)C(=O)N[C@@H](CCCCN)C(=O)N[C@@H](CCCCNC(C)=O)C(N)=O)[C@@H](C)O)C(=O)O)C(=O)O)C(=O)O` [compound 60] (Ac-LEGREKVRAK(Ac)I[Aib][Aib]EGK([Suc-X4])STFS[Aib]RKK(Ac)-NH2): the midpoint of the response, the EC50, lay at 0.15 nM and the Emax turned out to be 95%. `CCCCCCCCCCCCCCCCCC(=O)N[C@@H](CCC(=O)N[C@@H](CCC(=O)N[C@@H](CCC(=O)NCCCOCCOCCOCCCNC(=O)CCC(=O)NCCCOCCOCCOCCCNC(=O)CCC(=O)NCCCOCCOCCOCCCNC(=O)CCC(=O)NCCCC[C@H](NC(=O)CNC(=O)[C@H](CCC(=O)O)NC(=O)C(C)(C)NC(=O)C(C)(C)NC(=O)[C@@H](NC(=O)[C@H](CCCCNC(C)=O)NC(=O)[C@H](C)NC(=O)[C@H](CCCNC(=N)N)NC(=O)[C@@H](NC(=O)[C@H](CCCCN)NC(=O)[C@H](CCC(=O)O)NC(=O)[C@H](CCCNC(=N)N)NC(=O)CNC(=O)[C@H](CCC(=O)O)NC(=O)[C@H](CC(C)C)NC(C)=O)C(C)C)[C@@H](C)CC)C(=O)N[C@@H](CO)C(=O)N[C@H](C(=O)N[C@@H](Cc1ccccc1)C(=O)N[C@@H](CO)C(=O)NC(C)(C)C(=O)N[C@@H](CCCNC(=N)N)C(=O)N[C@@H](CCCCN)C(=O)N[C@@H](CCCCNC(C)=O)C(N)=O)[C@@H](C)O)C(=O)O)C(=O)O)C(=O)O` [compound 61] (Ac-LEGREKVRAK(Ac)I[Aib][Aib]EGK([Suc-X3])STFS[Aib]RKK(Ac)-NH2) returned a concentration giving a half-maximal response (EC50) of 0.1 nM and an Emax of 97%. The like results for `CCCCCCCCCCCCCCCC(=O)N[C@@H](CCC(=O)N[C@@H](CCC(=O)N[C@@H](CCC(=O)N[C@@H](CCC(=O)NCCCOCCOCCOCCCNC(=O)CCC(=O)NCCCOCCOCCOCCCNC(=O)CCC(=O)NCCCOCCOCCOCCCNC(=O)CCC(=O)NCCCC[C@H](NC(=O)CNC(=O)[C@H](CCC(=O)O)NC(=O)C(C)(C)NC(=O)C(C)(C)NC(=O)[C@@H](NC(=O)[C@H](CCCCNC(C)=O)NC(=O)[C@H](C)NC(=O)[C@H](CCCNC(=N)N)NC(=O)[C@@H](NC(=O)[C@H](CCCCN)NC(=O)[C@H](CCC(=O)O)NC(=O)[C@H](CCCNC(=N)N)NC(=O)CNC(=O)[C@H](CCC(=O)O)NC(=O)[C@H](CC(C)C)NC(C)=O)C(C)C)[C@@H](C)CC)C(=O)N[C@@H](CO)C(=O)N[C@H](C(=O)N[C@@H](Cc1c[nH]c2ccccc12)C(=O)N[C@@H](CO)C(=O)NC(C)(C)C(=O)N[C@@H](CCCNC(=N)N)C(=O)N[C@@H](CCCCN)C(=O)N[C@@H](CCCCNC(C)=O)C(N)=O)[C@@H](C)O)C(=O)O)C(=O)O)C(=O)O)C(=O)O` [compound 62] (Ac-LEGREKVRAK(Ac)I[Aib][Aib]EGK([Suc-X13])STWS[Aib]RKK(Ac)-NH2) were, in that order, 0.6 nM and 98%. The like results for `CCCCCCCCCCCCCCCC(=O)N[C@@H](CCC(=O)N[C@@H](CCC(=O)N[C@@H](CCC(=O)NCCCOCCOCCOCCCNC(=O)CCC(=O)NCCCOCCOCCOCCCNC(=O)CCC(=O)NCCCOCCOCCOCCCNC(=O)CCC(=O)NCCCC[C@H](NC(=O)CNC(=O)[C@H](CCC(=O)O)NC(=O)C(C)(C)NC(=O)C(C)(C)NC(=O)[C@@H](NC(=O)[C@H](CCCCNC(C)=O)NC(=O)[C@H](C)NC(=O)[C@H](CCCNC(=N)N)NC(=O)[C@@H](NC(=O)[C@H](CCCCN)NC(=O)[C@H](CCC(=O)O)NC(=O)[C@H](CCCNC(=N)N)NC(=O)CNC(=O)[C@H](CCC(=O)O)NC(=O)[C@H](CC(C)C)NC(C)=O)C(C)C)[C@@H](C)CC)C(=O)N[C@@H](CO)C(=O)N[C@@H](CCC(N)=O)C(=O)N[C@@H](Cc1c[nH]c2ccccc12)C(=O)N[C@@H](CO)C(=O)NC(C)(C)C(=O)N[C@@H](CCCNC(=N)N)C(=O)N[C@@H](CCCCN)C(=O)N[C@@H](CCCCNC(C)=O)C(N)=O)C(=O)O)C(=O)O)C(=O)O` [compound 63] (Ac-LEGREKVRAK(Ac)I[Aib][Aib]EGK([Suc-X1])SQWS[Aib]RKK(Ac)-NH2) were, in that order, 1.45 nM and 97%. `CCCCCCCCCCCCCCCC(=O)N[C@@H](CCC(=O)N[C@@H](CCC(=O)N[C@@H](CCC(=O)NCCCOCCOCCOCCCNC(=O)CCC(=O)NCCCOCCOCCOCCCNC(=O)CCC(=O)NCCCOCCOCCOCCCNC(=O)CCC(=O)NCCCC[C@H](NC(=O)CNC(=O)[C@H](CCC(=O)O)NC(=O)C(C)(C)NC(=O)C(C)(C)NC(=O)[C@@H](NC(=O)[C@H](CCCCNC(C)=O)NC(=O)[C@H](C)NC(=O)[C@H](CCCNC(=N)N)NC(=O)[C@@H](NC(=O)[C@H](CCCCN)NC(=O)[C@H](CCC(=O)O)NC(=O)[C@H](CCCNC(=N)N)NC(=O)CNC(=O)[C@H](CCC(=O)O)NC(=O)[C@H](CC(C)C)NC(C)=O)C(C)C)[C@@H](C)CC)C(=O)N[C@@H](CO)C(=O)N[C@@H](CCCNC(=N)N)C(=O)N[C@@H](Cc1c[nH]c2ccccc12)C(=O)N[C@@H](CO)C(=O)NC(C)(C)C(=O)N[C@@H](CCCNC(=N)N)C(=O)N[C@@H](CCCCN)C(=O)N[C@@H](CCCCNC(C)=O)C(N)=O)C(=O)O)C(=O)O)C(=O)O` [compound 64] (Ac-LEGREKVRAK(Ac)I[Aib][Aib]EGK([Suc-X1])SRWS[Aib]RKK(Ac)-NH2) yielded an EC50 of 0.52 nM and an Emax of 95%. For `CCCCCCCCCCCCCCCC(=O)N[C@@H](CCC(=O)N[C@@H](CCC(=O)N[C@@H](CCC(=O)NCCCOCCOCCOCCCNC(=O)CCC(=O)NCCCOCCOCCOCCCNC(=O)CCC(=O)NCCCOCCOCCOCCCNC(=O)CCC(=O)NCCCC[C@H](NC(=O)CNC(=O)[C@H](CCC(=O)O)NC(=O)C(C)(C)NC(=O)C(C)(C)NC(=O)[C@@H](NC(=O)[C@H](CCC(N)=O)NC(=O)[C@H](CCCCNC(C)=O)NC(=O)[C@H](CCCNC(=N)N)NC(=O)[C@@H](NC(=O)[C@H](CCCCN)NC(=O)[C@H](CCC(=O)O)NC(=O)[C@H](CCCNC(=N)N)NC(=O)CNC(=O)[C@H](CCC(=O)O)NC(=O)[C@H](CC(C)C)NC(C)=O)C(C)C)[C@@H](C)CC)C(=O)N[C@@H](CO)C(=O)N[C@H](C(=O)N[C@@H](Cc1c[nH]c2ccccc12)C(=O)N[C@@H](CO)C(=O)NC(C)(C)C(=O)N[C@@H](CCCNC(=N)N)C(=O)N[C@@H](CCCCN)C(=O)N[C@@H](CCCCNC(C)=O)C(N)=O)[C@@H](C)O)C(=O)O)C(=O)O)C(=O)O` [compound 65] (Ac-LEGREKVRK(Ac)QI[Aib][Aib]EGK([Suc-X1])STWS[Aib]RKK(Ac)-NH2) the same measures were 1.19 nM and 95%.
